Literature values in patent US8492366B2, “Enhancedly-solubilized beta-hydroxy acids and higher potency skin peels formulated therefrom” (Societe L'Oreal S.A., priority 2002, dated 2013).

## O=C(O)c1ccccc1O [salicylic acid, 2-hydroxybenzoic acid]
  maximum solubility in alcohol: ~29%
